Reference: article PMC10057480, “Expanding the Library of 1,2,4-Oxadiazole Derivatives: Discovery of New Farnesoid X Receptor (FXR) Antagonists/Pregnane X Receptor (PXR) Agonists” (Molecules, 2023)
Values joined by “and” are separate entries in the source; they are usually repeats but may differ in a detail not shown here. Identical values can stand only once.

Legend:
FXR = biological target: T1, FXR (Homo sapiens, UniProt Q96RI1); test: FXR luciferase reporter transactivation assay (antagonism) on HepG2 cells; type: cell-based; conditions: at least three experiments; for FXR Antagonism Eff (%): HepG2 transactivation, compounds at 50 μM, percent inhibition of transactivation set at 100%, mean ± SD; for IC50: transactivation assay, concentration-response, mean ± SEM
T1 construct: expressed in transfected cells; host or cells: HepG2
T1 sequence (Q96RI1 1-486): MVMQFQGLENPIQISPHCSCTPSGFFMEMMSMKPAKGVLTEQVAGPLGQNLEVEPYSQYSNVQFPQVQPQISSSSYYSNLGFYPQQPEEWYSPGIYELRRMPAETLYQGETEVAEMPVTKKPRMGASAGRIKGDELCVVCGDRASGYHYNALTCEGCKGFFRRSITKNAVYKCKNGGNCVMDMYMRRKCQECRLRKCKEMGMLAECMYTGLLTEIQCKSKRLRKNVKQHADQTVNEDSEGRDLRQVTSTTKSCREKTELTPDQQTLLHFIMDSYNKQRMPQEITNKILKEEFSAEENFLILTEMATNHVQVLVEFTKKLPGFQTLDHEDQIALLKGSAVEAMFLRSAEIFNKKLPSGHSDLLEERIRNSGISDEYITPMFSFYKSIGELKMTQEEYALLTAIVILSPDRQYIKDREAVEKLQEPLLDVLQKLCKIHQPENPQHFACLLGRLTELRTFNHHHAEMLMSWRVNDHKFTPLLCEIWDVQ
Experimental: The antagonistic activity on FXR was investigated using HepG2 cells transfected with 100 ng of pSG5-FXR and pSG5-RXR, 200 ng of the reporter vector p(hsp27)-TK-LUC containing the FXR response element, and 100 ng of the pGL4.70 vector encoding the human Renilla gene used as a transfection control. […] In another experimental setting, HepG2 cells were transfected using 100 ng of pSG5-PXR, 100 ng of pSG5-RXR, and 100 ng of pGL4.70, along with the reporter vector pGL3(henance)PXRE. At 24 h post-transfection, cells were stimulated with rifaximin 10 μM (as a positive control) or compounds 2–11 (10 μM). The specificity of compounds 5 and 11 versus FXR and PXR was tested using HepG2 cells transiently transfected with 200 ng of the reporter vector p(UAS)5XTKLuc, 100 ng of a vector containing the ligand binding domain of LXRα or LXRβand 100 ng of pGL4.70, a vector encoding the human Renilla gene. At 24 h post-transfection, cells were stimulated for 18 h with GW3965 (5 μM), compounds 5 and 11 (10 μM), and the combination of GW3965 plus 5 or 11 (50 μM). Cellular lysate was assayed for luciferase and Renilla activities after 18 h using the Dual-Luciferase Reporter assay system (E1980, Promega, Madison, WI, USA). The activity of luciferase was measured using the Glomax 20/20 luminometer (Promega, Madison, WI, USA) and normalized with Renilla activities.

PXR = biological target: T2, PXR (Homo sapiens, UniProt O75469); test: PXR luciferase reporter transactivation assay (agonism) on HepG2 cells; type: cell-based; conditions: compound 10 μM, maximal transactivation compared to Rifaximin 10 μM, mean ± SD, at least three experiments
T2 construct: expressed in transfected cells; host or cells: HepG2
T2 sequence (O75469 1-434): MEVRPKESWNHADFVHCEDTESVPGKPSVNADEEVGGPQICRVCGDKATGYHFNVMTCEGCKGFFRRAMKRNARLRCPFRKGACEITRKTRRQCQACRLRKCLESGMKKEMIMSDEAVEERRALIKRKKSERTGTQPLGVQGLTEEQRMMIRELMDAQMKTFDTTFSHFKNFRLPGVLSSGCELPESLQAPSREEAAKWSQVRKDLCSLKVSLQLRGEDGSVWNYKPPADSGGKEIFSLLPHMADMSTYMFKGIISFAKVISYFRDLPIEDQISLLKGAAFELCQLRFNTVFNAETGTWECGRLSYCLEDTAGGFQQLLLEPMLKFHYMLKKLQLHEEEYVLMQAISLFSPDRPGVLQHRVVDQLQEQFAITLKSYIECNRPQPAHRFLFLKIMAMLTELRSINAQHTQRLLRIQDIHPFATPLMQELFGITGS
T2 sequence (P19793 1-462 partner): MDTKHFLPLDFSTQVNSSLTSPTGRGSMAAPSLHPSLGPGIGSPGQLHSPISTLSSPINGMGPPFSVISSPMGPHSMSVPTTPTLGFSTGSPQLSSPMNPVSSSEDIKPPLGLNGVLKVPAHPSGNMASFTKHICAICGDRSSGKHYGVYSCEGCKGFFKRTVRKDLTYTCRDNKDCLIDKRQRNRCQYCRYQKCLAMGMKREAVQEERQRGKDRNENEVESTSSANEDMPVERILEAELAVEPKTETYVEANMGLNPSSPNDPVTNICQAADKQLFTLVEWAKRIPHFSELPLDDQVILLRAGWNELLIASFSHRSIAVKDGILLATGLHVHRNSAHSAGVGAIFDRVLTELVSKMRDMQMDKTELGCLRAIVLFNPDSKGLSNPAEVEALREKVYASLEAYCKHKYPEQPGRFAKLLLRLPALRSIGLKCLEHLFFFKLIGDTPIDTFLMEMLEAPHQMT
Experimental: The antagonistic activity on FXR was investigated using HepG2 cells transfected with 100 ng of pSG5-FXR and pSG5-RXR, 200 ng of the reporter vector p(hsp27)-TK-LUC containing the FXR response element, and 100 ng of the pGL4.70 vector encoding the human Renilla gene used as a transfection control. Cells were stimulated with the agonist 6-ECDCA (10 µM) alone or in combination with compounds 2–11 after 24 h. In another experimental setting, HepG2 cells were transfected using 100 ng of pSG5-PXR, 100 ng of pSG5-RXR, and 100 ng of pGL4.70, along with the reporter vector pGL3(henance)PXRE. At 24 h post-transfection, cells were stimulated with rifaximin 10 μM (as a positive control) or compounds 2–11 (10 μM). The specificity of compounds 5 and 11 versus FXR and PXR was tested using HepG2 cells transiently transfected with 200 ng of the reporter vector p(UAS)5XTKLuc, 100 ng of a vector containing the ligand binding domain of LXRα or LXRβand 100 ng of pGL4.70, a vector encoding the human Renilla gene. At 24 h post-transfection, cells were stimulated for 18 h with GW3965 (5 μM), compounds 5 and 11 (10 μM), and the combination of GW3965 plus 5 or 11 (50 μM). Cellular lysate was assayed for luciferase and Renilla activities after 18 h using the Dual-Luciferase Reporter assay system (E1980, Promega, Madison, WI, USA). The activity of luciferase was measured using the Glomax 20/20 luminometer (Promega, Madison, WI, USA) and normalized with Renilla activities.

Compound	FXR Antagonism Eff (%) (FXR)	IC50 (FXR)	PXR Agonism Eff (%) (PXR)
CCCCCN1CCC(c2nc(-c3ccc4ccccc4c3)no2)CC1 [Compound 5, 3-(Naphthalen-2-yl)-5-(1-pentylpiperidin-4-yl)-1,2,4-oxadiazole]	66% and 66 ± 1%	8.4 ± 2 µM	71% and 71 ± 4%
OCc1ccc(CN2CCC(c3nc(-c4ccc5ccccc5c4)no3)CC2)cc1 [Compound 11, 5-[1-(4-(Hydroxymethyl)benzyl)piperidin-4-yl]-3-(naphthalen-2-yl)-1,2,4-oxadiazole]	72% and 72 ± 6%	4.4 ± 0.4 µM	105% and 105 ± 15%
